Measured values as given in patent US8895579B2, “Heterotricyclic AMPA receptor antagonists for treatment of epilepsy, pain, and other neurological disorders and diseases” (Northwestern University, priority 2010, dated 2014).
“Also recorded” adds a separate entry of the source.

Columns and labels:
GluK2a = molecular target: T1, GluK2a (Rattus norvegicus, UniProt P42260); experiment: [3H]-KA radioligand binding, membranes of HEK293-T/17 cells expressing GluK2a; settings: 10 nM [3H]-KA, 1 h at 4° C., read-out: [3H]KA bound as percent of total (specific) binding in absence of competing ligand
T1 construct: myc; expressed in transfected cells; host or cells: HEK293-T/17 (CRL-11268)
Protocol: Radioligand binding. HEK293-T/17 cells were transfected with 5 μg of iGluR cDNA in 100 mm^2 culture dishes. Two days post transfection, the plates were washed twice with ice-cold Dulbecco's phosphate-buffered saline (DPBS) and then incubated with 50 mM Tris (pH 7.4) and 1 mM EDTA for three minutes on ice. Cells were collected and centrifuged for five minutes at 800 g at room temperature. The cell pellet was homogenized in 50 mM Tris (pH 7.4) containing 320 mM sucrose (homogenization buffer, HB) on ice using a glass dounce homogenizer and centrifuged at 4° C. for 10 minutes at 800 g. The supernatant, containing the membrane fragments, was saved and the remaining pellet containing nuclei and unbroken cells was resuspended in HB. This homogenization process was repeated two more times and after collection of the final resulting supernatant, the remaining pellet was discarded. The collected supernatants were centrifuged at 4° C. for 20 minutes at 20000 g and the resulting supernatant was discarded leaving a membrane-containing pellet. […] Non-specific binding was determined as the amount of radioligand bound in the presence of a saturating concentration of glutamate (1 mM). Total binding was determined as the amount of radioligand bound in the absence of any competing ligands minus the non-specific binding. […]

[1] = molecular target: T2, homomeric GluA1 AMPA receptor (Rattus norvegicus, UniProt P19490); experiment: Whole-cell patch clamp of recombinant GluA1 receptors in HEK293-T/17 cells; assay type: cell-based; settings: 30 μM; 10 mM glutamate
T2 construct: expressed in transfected cells; host or cells: HEK293-T/17 (CRL-11268)
Protocol: (§1) Cell Culture and Transfection. Human embryonic kidney cells expressing T-antigen, clone 17 (HEK293-T/17) (CRL-11268) were cultured at 37° C. with 5% CO2 in DMEM, including 100 μg/mL penicillin, 100 μg/mL streptomycin, and 10% heat-inactivated fetal bovine serum. Cells were split twice per week. For transfection, HEK293-T/17 cells were plated at 3×10^4 cells/cm^2 for pharmacology experiments and 5×10^3 cells/cm^2 for physiology experiments in fresh medium 24 h prior to transfection. Cells were transfected with AMPA or KA receptor plasmid cDNAs using Mirus Trans-IT transfection reagent (Minus Bio Corporation, Madison, Wis.) at a ratio of 1 μg cDNA: 3 μL Trans-1T reagent and maintained in transfection medium overnight followed by a media change the next day. Transfected cells were maintained in this medium until the experiment was conducted (48-72 h total post transfection).
(§2) Electrophysiology. For analysis of recombinant receptors, HEK293-T/17 cells were co-transfected with 0.2 μg of iGluR cDNA and 0.05 μg of eGFP. For heterologous GluA1/GluA2 receptors, the GluA1:GluA2 cDNA ratio was 1:6. Two to three days post-transfection, eGFP-expressing cells were lifted from the cover slip and voltage clamped in whole cell mode. […]

[2] = molecular target: T3, kainate receptor EPSCs, CA3 pyramidal neurons (Mus musculus, UniProt P39087+Q61626+Q8BMF5); experiment: Kainate receptor EPSCs at mossy fiber-CA3 synapses, acute hippocampal slices; assay type: cell-based; settings: 20 μM
T3 construct: whole-cell voltage clamp recording from mouse acute brain slices; from tissue; host or cells: acute hippocampal slices, P15-21 C57Bl/6 mice, CA3 pyramidal neurons
Protocol: For recordings from acute hippocampal slices, brains from P15-21 C57Bl/6 mice were sliced transversely (350 μm thickness) in a sucrose slicing solution containing (in mM) 85 NACl, 2.5 KCl, 1.25 NaH2PO4, 25 NaHCO3, 25 glucose, 75 sucrose, 0.5 CaCl2, 4 MgCl2, 0.5 Na ascorbate, 10 μM DL-APV and 100 μM kynurenic acid (pH 7.3). After slicing, the solution was exchanged with an incubation solution containing (in mM) 125 NaCl, 2.4 KCl, 1.2 NaH2PO4, 25 NaHCO3, 25 glucose: 1 CaCl2, 2 MgCl2, 0.5 Na ascorbate, 10 μM DL-APV and 100 μM kynurenic acid (pH 7.3) that was bubbled continuously with CO2-balanced O2 (carbogen). […] Recordings in voltage clamp mode used the CsF/CsCl internal solution and carbogenated external recording solution containing (in mM) 120 NaCl, 2.4 KCl, 2 MgCl2, 1 CaCl2, 25 NaHCO3, 1.2 NaH2PO4, 25 glucose, 10 μM bicuculline methiodide, 50 μM PTX and 50 μM D-APV (pH 7.3). […] NMDA EPSCs were validated by addition of D-APV (50 μM) at the end of each recording. […] IKM compounds were applied for 10 minutes and changes in the peak amplitudes of excitatory post-synaptic currents (EPSCs) and paired-pulse ratios were analyzed during the last two minutes of drug application. EPSC charge transfer, AP frequency, paired-pulse ratio and EPSC peak amplitude were analyzed with Mini-Analysis v6.03 (Synaptosoft, Decatur, Ga.) and Clampfit v10.0 (MDS, Sunnyvale, Calif.) software.

[3] = molecular target: T4, homomeric GluK1-2b kainate receptor (Rattus norvegicus, UniProt P22756); experiment: Whole-cell patch clamp of recombinant GluK1-2b receptors in HEK293-T/17 cells; assay type: cell-based; settings: 30 μM; 10 mM glutamate
T4 construct: myc; expressed in transfected cells; host or cells: HEK293-T/17 (CRL-11268)
Protocol: as §1, §2

T3 sequence (P39087 32-908): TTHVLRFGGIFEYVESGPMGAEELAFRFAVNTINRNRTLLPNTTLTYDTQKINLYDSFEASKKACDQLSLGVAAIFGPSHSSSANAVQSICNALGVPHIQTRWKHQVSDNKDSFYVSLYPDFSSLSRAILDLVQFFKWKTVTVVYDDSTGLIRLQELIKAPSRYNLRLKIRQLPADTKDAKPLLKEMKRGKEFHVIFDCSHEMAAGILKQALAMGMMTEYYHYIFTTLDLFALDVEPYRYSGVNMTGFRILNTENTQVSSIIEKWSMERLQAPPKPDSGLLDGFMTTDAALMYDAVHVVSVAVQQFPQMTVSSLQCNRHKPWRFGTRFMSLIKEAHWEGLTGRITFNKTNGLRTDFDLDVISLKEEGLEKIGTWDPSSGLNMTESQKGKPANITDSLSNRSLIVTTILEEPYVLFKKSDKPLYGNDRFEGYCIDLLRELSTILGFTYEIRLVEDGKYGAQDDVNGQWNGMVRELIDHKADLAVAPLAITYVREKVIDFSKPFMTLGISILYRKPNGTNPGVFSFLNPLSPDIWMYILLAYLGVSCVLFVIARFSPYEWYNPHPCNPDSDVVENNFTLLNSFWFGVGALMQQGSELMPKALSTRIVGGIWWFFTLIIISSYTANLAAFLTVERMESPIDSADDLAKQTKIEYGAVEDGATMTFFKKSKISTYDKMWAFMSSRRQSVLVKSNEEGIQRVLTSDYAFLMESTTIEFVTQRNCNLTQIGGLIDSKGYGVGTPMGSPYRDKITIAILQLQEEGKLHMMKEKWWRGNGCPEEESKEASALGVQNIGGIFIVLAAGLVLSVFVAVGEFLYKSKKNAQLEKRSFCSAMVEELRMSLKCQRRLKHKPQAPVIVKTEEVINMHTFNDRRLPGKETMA
T3 sequence (Q8BMF5 21-956): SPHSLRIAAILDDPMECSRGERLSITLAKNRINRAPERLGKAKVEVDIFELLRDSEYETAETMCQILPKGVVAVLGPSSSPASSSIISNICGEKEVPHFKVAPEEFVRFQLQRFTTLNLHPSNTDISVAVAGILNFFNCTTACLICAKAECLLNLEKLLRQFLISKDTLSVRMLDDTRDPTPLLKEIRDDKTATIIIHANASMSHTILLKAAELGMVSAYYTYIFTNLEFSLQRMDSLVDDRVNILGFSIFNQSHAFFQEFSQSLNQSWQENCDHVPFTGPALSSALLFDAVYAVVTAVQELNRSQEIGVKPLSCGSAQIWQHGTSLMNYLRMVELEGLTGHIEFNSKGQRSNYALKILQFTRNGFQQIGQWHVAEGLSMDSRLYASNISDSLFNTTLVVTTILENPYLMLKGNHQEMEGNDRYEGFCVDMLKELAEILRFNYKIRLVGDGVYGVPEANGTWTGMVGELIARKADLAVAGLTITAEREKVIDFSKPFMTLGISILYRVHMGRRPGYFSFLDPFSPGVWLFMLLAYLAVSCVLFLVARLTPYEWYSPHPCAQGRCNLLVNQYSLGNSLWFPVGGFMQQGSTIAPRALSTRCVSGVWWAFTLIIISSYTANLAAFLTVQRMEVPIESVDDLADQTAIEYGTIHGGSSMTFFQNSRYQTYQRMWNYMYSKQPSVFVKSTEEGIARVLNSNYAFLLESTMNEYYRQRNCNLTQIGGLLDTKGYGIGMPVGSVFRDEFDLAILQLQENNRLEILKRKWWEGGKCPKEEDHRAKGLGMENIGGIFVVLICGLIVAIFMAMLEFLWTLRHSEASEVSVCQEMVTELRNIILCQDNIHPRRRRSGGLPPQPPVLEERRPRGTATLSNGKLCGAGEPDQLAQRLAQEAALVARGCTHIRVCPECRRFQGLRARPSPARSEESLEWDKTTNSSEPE
T3 sequence (Q61626 15-979): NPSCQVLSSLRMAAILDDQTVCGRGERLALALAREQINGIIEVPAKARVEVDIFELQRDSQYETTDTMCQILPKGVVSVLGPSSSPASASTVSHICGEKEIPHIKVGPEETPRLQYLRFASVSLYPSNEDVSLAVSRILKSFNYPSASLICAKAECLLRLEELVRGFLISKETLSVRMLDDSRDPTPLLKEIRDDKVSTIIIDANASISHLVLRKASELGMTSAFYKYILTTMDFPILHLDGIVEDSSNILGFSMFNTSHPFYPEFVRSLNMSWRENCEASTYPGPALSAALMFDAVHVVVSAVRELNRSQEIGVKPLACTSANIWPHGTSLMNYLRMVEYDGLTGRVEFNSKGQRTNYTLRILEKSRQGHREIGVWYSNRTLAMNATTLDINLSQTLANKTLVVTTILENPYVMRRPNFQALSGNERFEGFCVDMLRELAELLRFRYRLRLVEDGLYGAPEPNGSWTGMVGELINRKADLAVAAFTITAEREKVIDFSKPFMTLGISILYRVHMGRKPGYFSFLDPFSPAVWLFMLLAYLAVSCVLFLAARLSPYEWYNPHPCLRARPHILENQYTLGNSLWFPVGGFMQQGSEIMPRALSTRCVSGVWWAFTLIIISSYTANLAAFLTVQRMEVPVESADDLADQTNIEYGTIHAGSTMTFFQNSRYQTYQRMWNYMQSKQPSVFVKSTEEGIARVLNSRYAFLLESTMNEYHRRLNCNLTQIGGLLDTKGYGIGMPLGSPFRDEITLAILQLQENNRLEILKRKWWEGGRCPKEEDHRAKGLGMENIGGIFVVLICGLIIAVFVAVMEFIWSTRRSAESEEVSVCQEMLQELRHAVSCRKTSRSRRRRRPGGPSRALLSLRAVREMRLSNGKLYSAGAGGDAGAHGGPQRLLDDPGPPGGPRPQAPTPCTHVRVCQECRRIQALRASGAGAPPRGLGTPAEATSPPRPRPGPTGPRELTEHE
T4 sequence (P22756 31-905 isoform P22756-2 limits assumed): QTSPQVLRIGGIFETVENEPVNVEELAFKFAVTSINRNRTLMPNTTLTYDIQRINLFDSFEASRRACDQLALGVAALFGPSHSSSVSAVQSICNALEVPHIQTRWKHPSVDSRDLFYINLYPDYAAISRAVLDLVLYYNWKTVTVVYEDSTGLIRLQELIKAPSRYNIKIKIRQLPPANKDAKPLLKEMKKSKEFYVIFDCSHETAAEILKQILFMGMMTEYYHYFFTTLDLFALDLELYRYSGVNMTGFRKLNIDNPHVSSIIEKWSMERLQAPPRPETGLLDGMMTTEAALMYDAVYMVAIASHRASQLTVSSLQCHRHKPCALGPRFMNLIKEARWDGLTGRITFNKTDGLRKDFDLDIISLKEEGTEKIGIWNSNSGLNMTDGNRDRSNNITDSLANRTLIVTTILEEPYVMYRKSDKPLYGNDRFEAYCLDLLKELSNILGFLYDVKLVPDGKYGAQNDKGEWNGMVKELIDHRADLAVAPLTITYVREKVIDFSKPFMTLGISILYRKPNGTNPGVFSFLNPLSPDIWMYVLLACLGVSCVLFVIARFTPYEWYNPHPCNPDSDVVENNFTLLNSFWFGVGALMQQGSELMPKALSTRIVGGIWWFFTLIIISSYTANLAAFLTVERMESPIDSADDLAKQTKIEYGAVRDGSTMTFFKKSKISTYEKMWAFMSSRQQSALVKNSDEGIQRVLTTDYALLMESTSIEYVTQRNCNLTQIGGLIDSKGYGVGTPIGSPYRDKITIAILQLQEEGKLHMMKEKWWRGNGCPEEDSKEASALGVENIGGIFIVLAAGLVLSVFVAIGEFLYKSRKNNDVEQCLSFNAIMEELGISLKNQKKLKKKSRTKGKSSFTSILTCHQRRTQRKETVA
T2 sequence (P19490 19-907 isoform P19490-2 limits assumed): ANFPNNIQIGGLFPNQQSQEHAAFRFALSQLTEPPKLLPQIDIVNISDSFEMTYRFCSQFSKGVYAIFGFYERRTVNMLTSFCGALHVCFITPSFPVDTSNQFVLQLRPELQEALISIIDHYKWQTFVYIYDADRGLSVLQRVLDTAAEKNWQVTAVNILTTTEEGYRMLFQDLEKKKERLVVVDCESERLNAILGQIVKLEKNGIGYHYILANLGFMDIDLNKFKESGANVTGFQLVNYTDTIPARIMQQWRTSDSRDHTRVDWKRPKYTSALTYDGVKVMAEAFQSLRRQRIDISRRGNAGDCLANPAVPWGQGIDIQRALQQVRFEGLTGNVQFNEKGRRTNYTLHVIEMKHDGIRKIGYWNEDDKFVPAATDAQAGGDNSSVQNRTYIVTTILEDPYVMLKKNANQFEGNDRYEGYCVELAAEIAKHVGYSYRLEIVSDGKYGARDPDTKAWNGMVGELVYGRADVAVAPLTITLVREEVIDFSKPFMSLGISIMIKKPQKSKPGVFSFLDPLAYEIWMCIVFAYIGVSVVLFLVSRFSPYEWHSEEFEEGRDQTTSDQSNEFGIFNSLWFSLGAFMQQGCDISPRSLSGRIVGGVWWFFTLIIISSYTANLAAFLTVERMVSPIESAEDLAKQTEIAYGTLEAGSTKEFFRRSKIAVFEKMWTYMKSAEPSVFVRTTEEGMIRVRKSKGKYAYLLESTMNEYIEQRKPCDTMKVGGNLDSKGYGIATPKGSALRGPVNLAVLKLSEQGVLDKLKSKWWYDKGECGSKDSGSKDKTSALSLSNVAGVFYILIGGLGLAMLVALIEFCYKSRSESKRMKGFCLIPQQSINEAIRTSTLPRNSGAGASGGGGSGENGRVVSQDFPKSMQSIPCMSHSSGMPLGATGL
T1 sequence (P42260 32-908): as the sequence (P39087 32-908) above, with S377A counted along it

## O=C(O)C[C@@]12O[C@H]3C=CCN[C@H]3C1CN[C@H]2C(=O)O (stereo partly shown) [IKM-159]
GluK2a
  activity at 100 µM: 98 ± 4%
[1]
  GluA1 peak amplitude as percent of basal (glutamate alone) peak: 92±3%
[2]
  effect on kainate receptor EPSC peak amplitude: did not alter the mean amplitude; also recorded: did not alter the typical run-down in amplitude
[3]
  GluK1-2b peak amplitude as percent of basal peak glutamate current: 90±10%
